Assay results from patent US7157430B2, “(Substituted)acyl dipeptidyl inhibitors of the ICE/CED-3 family of cysteine proteases” (Idun Pharmaceuticals, Inc., priority 1998, dated 2007).
Read-outs that look alike come from different tables or passages of the source.

Experiments:
Type in all cases: biochemical
mICE = target: T1, mICE (Mus musculus, UniProt P29452); test: Fluorescence enzyme assay, IC50 determination, ICE
T1 sequence (P29452 123-296 limits assumed): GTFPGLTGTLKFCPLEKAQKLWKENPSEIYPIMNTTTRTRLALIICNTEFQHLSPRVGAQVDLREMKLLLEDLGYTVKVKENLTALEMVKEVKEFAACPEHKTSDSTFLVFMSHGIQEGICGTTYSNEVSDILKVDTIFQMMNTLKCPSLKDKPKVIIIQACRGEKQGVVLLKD
T1 sequence (P29452 315-402 limits assumed): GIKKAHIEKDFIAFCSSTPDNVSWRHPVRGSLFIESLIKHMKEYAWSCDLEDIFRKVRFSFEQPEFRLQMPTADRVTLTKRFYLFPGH
Method: (§1) Fluorescence enzyme assays detecting the activity of the compounds of Formula 1 utilizing the recombinant ICE and CPP32 enzymes are performed essentially according to Thornberry et al. (Nature, 356:768:774 (1992)) and Nicholson et al. (Nature, 376:37–43 (1995)) respectively, (herein incorporated by reference) in 96 well microtiter plates. The substrate is Acetyl-Tyr-Val-Ala-Asp-amino-4-methylcoumarin (AMC) for the ICE assay and Acetyl-Asp-Glu-Val-Asp-amino-4-methylcoumarin for the CPP32, Mch2, Mch3 and Mch5 assays. Enzyme reactions are run in ICE buffer (25 mM HEPES, 1 mM EDTA, 0.1% CHAPS, 10% sucrose, pH 7.5) containing 2 mM DTT at room temperature in duplicate.
(§2) The enzyme and the compound of Formula I to be assayed are allowed to preincubate in the microtitre plate wells for 30 minutes at room temperature prior to the addition of substrate to initiate the reaction. Fluorescent AMC product formation is monitored for one hour at room temperature by measuring the fluorescence emission at 460 nm using an excitation wavelength of 360 nm. The fluorescence change in duplicate (control) wells are averaged and the mean values are plotted as a function of inhibitor concentration to determine the inhibitor concentration producing 50% inhibition (IC50). The results of this assay are set forth below in Table 1 and in Table 3 (for Table 3, see Examples 11 through 52).
(§3) The reference compound for this assay was Cbz-ValAlaAsp-H and the values are denoted in Table 1 as “Reference”.

CPP32 = target: T2, CPP32 (Homo sapiens, UniProt P42574); test: Fluorescence enzyme assay, IC50 determination, CPP32
T2 sequence (P42574 29-175 limits assumed): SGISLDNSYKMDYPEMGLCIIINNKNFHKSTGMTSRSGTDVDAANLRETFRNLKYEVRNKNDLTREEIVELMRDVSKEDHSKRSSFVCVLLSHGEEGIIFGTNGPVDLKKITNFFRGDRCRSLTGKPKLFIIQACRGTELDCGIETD
T2 sequence (P42574 176-277 limits assumed): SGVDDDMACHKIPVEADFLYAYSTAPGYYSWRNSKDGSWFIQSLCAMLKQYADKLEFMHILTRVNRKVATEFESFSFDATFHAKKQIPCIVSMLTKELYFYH
Method: as §1, §2, §3

MCH-2 = target: T3, MCH-2 (Homo sapiens, UniProt P55212); test: Fluorescence enzyme assay, IC50 determination, Mch2
T3 sequence (P55212 24-179 limits assumed): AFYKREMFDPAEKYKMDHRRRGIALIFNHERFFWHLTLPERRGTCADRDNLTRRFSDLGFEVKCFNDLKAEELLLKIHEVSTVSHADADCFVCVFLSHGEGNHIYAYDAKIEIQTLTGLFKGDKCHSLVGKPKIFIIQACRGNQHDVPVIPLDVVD
T3 sequence (P55212 194-293 limits assumed): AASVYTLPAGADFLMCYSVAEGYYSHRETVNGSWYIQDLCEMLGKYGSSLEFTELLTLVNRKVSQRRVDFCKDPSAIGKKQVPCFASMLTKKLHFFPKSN
Method: as §1, §2, §3

MCH-3 = target: T4, MCH-3 (Homo sapiens, UniProt P55210); test: Fluorescence enzyme assay, IC50 determination, Mch3
T4 sequence (P55210 24-198 limits assumed): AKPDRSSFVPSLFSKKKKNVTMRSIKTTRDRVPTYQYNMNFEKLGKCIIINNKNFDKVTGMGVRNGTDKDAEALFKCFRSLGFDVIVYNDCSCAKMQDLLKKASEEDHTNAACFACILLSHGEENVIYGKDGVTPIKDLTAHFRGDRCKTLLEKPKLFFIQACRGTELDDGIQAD
T4 sequence (P55210 207-303 limits assumed): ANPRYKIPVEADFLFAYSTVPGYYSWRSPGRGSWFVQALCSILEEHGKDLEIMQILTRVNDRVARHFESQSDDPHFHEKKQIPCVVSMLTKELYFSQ
Method: as §1, §2, §3

MCH-5 = MCH-5 (Homo sapiens, UniProt Q14790); test: Fluorescence enzyme assay, IC50 determination, Mch5
Sequence of MCH-5 (Q14790 217-374 limits assumed, species assumed): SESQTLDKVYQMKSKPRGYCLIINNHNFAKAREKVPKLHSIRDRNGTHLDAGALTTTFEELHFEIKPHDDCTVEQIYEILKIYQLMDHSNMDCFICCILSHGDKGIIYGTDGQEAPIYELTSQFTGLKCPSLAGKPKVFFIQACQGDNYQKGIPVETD
Sequence of MCH-5 (Q14790 385-479 limits assumed, species assumed): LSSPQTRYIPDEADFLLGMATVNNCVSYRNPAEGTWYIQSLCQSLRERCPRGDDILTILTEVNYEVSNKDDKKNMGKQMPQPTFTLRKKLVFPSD
Method: as §1, §2, §3

[1] = Table 3, method of Preparation 3A, read-out: mICE I50
[2] = Table 3, method of Preparation 3A, read-out: CPP32 I50
[3] = Table 3, method of Preparation 3A, read-out: MCH2 I50
[4] = Table 3, method of Preparation 3A, read-out: MCH3 I50
[5] = Table 3, method of Preparation 3A, read-out: MCH5 I50

| Structure (SMILES) | IC50 (mICE; [1]) | IC50 (CPP32; [2]) | IC50 (MCH-2; [3]) | IC50 (MCH-3; [4]) | IC50 (MCH-5; [5]) | IC50 (mICE; recombinant enzyme, Ac-YVAD-AMC substrate, 30 min preincubation, room temperature, read-out: mICE IC50) | IC50 (CPP32; recombinant enzyme, Ac-DEVD-AMC substrate, 30 min preincubation, room temperature, read-out: CPP32 IC50) | IC50 (MCH-2; Ac-DEVD-AMC substrate, 30 min preincubation, room temperature, read-out: MCH-2 IC50) | IC50 (MCH-3; Ac-DEVD-AMC substrate, 30 min preincubation, room temperature, read-out: MCH-3 IC50) | IC50 (MCH-5; Ac-DEVD-AMC substrate, 30 min preincubation, room temperature, read-out: MCH-5 IC50) |
| --- | --- | --- | --- | --- | --- | --- | --- | --- | --- | --- |
| CC(C)C[C@H](NC(=O)COc1ccc(Cl)c2ccccc12)C(=O)N[C@H](C=O)CC(=O)O [Example 28] | 0.429 µM | 0.231 µM | 12 µM | 3.38 µM | 1.69 µM | – | – | – | – | – |
| CC(C)C[C@H](NC(=O)COc1c(Cl)cc(Cl)c2ccccc12)C(=O)N[C@H](C=O)CC(=O)O [Example 29] | 0.141 µM | 0.357 µM | 21.4 µM | 3.61 µM | 3.04 µM | – | – | – | – | – |
| CC(C)C[C@H](NC(=O)COc1nccc2ccccc12)C(=O)N[C@H](C=O)CC(=O)O [Example 30] | 44.2 µM | 1.57 µM | > 50 µM | 34.7 µM | > 50 µM | – | – | – | – | – |
| CC(C)C[C@H](NC(=O)COc1ccnc2ccccc12)C(=O)N[C@H](C=O)CC(=O)O [Example 31] | 35.3 µM | 0.232 µM | > 50 µM | 4.57 µM | > 50 µM | – | – | – | – | – |
| CC(C)C[C@H](NC(=O)COc1cccc2ncccc12)C(=O)N[C@H](C=O)CC(=O)O [Example 32] | 5.25 µM | 0.412 µM | > 50 µM | 3.85 µM | 4.02 µM | – | – | – | – | – |
| CC(C)C[C@H](NC(=O)COc1cccc2cnccc12)C(=O)N[C@H](C=O)CC(=O)O [Example 33] | 5.14 µM | 0.407 µM | 42.7 µM | 3.48 µM | 3.64 µM | – | – | – | – | – |
| CC(C)C[C@H](NC(=O)COc1cccc2cccnc12)C(=O)N[C@H](C=O)CC(=O)O [Example 34] | 13.7 µM | 0.147 µM | 12.5 µM | 1.51 µM | 2.24 µM | – | – | – | – | – |
| CC(C)C[C@H](NC(=O)C(C)Oc1ccccc1)C(=O)N[C@H](C=O)CC(=O)O (stereo partly drawn) [Example 36] | 20.4 µM | 1.77 µM | > 10 µM | 8.27 µM | > 10 µM | – | – | – | – | – |
| CC(C)C[C@H](NC(=O)CCOc1ccccc1)C(=O)N[C@H](C=O)CC(=O)O [Example 37] | 9.42 µM | 0.419 µM | > 50 µM | 6.04 µM | > 10 µM | – | – | – | – | – |
| CC(C)C[C@H](NC(=O)COc1ccccc1)C(=O)N[C@H](C=O)CC(=O)O [Example 38] | > 10 µM | 3.4 µM | > 50 µM | > 10 µM | > 10 µM | – | – | – | – | – |
| CC(C)C[C@H](NC(=O)COc1ccccc1-c1ccccc1)C(=O)N[C@H](C=O)CC(=O)O [Example 39] | 0.636 µM | 0.095 µM | 0.717 µM | 2.02 µM | 1.71 µM | – | – | – | – | – |
| CC(C)C[C@H](NC(=O)COc1cccc(-c2ccccc2)c1)C(=O)N[C@H](C=O)CC(=O)O [Example 40] | 1.1 µM | 0.311 µM | 14.5 µM | 3.75 µM | 3.86 µM | – | – | – | – | – |
| CC(C)C[C@H](NC(=O)COc1ccc(-c2ccccc2)cc1)C(=O)N[C@H](C=O)CC(=O)O [Example 41] | 1.9 µM | 0.763 µM | 20.5 µM | 12 µM | 7.53 µM | – | – | – | – | – |
| CC(C)C[C@H](NC(=O)COc1ccccc1Cc1ccccc1)C(=O)N[C@H](C=O)CC(=O)O [Example 42] | 0.521 µM | 0.49 µM | 10.1 µM | 3.36 µM | 6.05 µM | – | – | – | – | – |
| CC(C)C[C@H](NC(=O)COc1ccc(Cc2ccccc2)cc1)C(=O)N[C@H](C=O)CC(=O)O [Example 43] | 1.8 µM | 0.346 µM | 18.9 µM | 4.41 µM | 4.72 µM | – | – | – | – | – |
| CC(C)C[C@H](NC(=O)COc1ccc(Oc2ccccc2)cc1)C(=O)N[C@H](C=O)CC(=O)O [Example 44] | 2.21 µM | 0.545 µM | 21.2 µM | 6.82 µM | 9.28 µM | – | – | – | – | – |
| CC(C)C[C@H](NC(=O)COc1ccccc1OCc1ccccc1)C(=O)N[C@H](C=O)CC(=O)O [Example 45] | 2.4 µM | 0.222 µM | 9.75 µM | 2.2 µM | 4.34 µM | – | – | – | – | – |
| CC(C)C[C@H](NC(=O)COc1ccc(OCc2ccccc2)cc1)C(=O)N[C@H](C=O)CC(=O)O [Example 46] | 2.51 µM | 0.57 µM | 33.4 µM | 7.25 µM | 8.6 µM | – | – | – | – | – |
| CC(C)C[C@H](NC(=O)COc1cccc2c1CCCC2)C(=O)N[C@H](C=O)CC(=O)O [Example 51] | 1.81 µM | 0.324 µM | 11.8 µM | 2.74 µM | 1.75 µM | – | – | – | – | – |
| CC(C)C[C@H](NC(=O)COc1ccc2c(c1)CCCC2)C(=O)N[C@H](C=O)CC(=O)O [Example 52] | 2.57 µM | 0.162 µM | 28.6 µM | 2.31 µM | 4.95 µM | – | – | – | – | – |
| O=C[C@H](CC(=O)O)NC(=O)[C@@H]1CSC(c2ccccc2)N1C(=O)COc1cccc2ccccc12 (stereo partly drawn) [Example 179, (3S,2′RS,4′R)-3-[3′-((1-Naphthyloxy)Acetyl)-2′-Phenylthiazolidine-4′-Carbonyl]Amino-4-Oxobutanoic Acid] | – | – | – | – | – | 0.204 µM | 14 µM | 3.53 µM | > 50 µM | 1.55 µM |
